According to patent US7342005B2, “Antibiotic compounds” (AstraZeneca UK Limited, priority 1992, dated 2008):
Converted amounts (≈) assume the structure as drawn. Where two headings read alike, the source gives them in different places.

Assays:
Assay in all cases: MIC by agar-dilution, Diagnostic Sensitivity Test
Assay type in all cases: cell-based
Settings in all cases: inoculum 10^4 CFU/spot
[1] = tested on: Enterobacter cloacae 108
Text: (§1) The following results were obtained for representative compounds on a standard in vitro test system using Diagnostic Sensitivity Test. The antibacterial activity is described in terms of the minimum inhibitory concentration (MIC) determined by the agar-dilution technique with an inoculum size of 10^4 CFU/spot.

[2] = tested on: S. aureus 147N
Text: as §1

[3] = tested on: E. coli TEM
Text: as §1

[4] = tested on: Enterobacter cloacae 029
Text: as §1

| MIC ([1]; read-out: MIC) [µg/mL] | MIC ([2]; Staphylococcus aureus, read-out: MIC) [µg/mL] | MIC ([3]; Escherichia coli, read-out: MIC) [µg/mL] | MIC ([4]; read-out: MIC) [µg/mL] | Structure (SMILES) | MIC [1] [µg/mL] | MIC [2] [µg/mL] | MIC [3] [µg/mL] | MIC [4] [µg/mL] |
| --- | --- | --- | --- | --- | --- | --- | --- | --- |
|  |  |  |  | C[C@@H](O)[C@H]1C(=O)N2C(C(=O)O)=C(S[C@@H]3CN[C@H](C(=O)Nc4cc(O)cc(C(=O)O)c4)C3)[C@H](C)[C@H]12 [Example 1, (1R,5S,6S,8R,2′S,4′S)-2-(2-(3-Carboxy-5-hydroxyphenylcarbamoyl)-pyrrolidin-4-yl-thio)-6-(1-hydroxyethyl)-1-methylcarbapenem-3-carboxylic acid] | 1.00 (≈ 2.03 µM) | 0.25 (≈ 0.509 µM) | 0.03 (≈ 0.061 µM) | 0.06 (≈ 0.122 µM) |
|  |  |  |  | CC(O)C1C(=O)N2C(C(=O)O)=C(SC3CNC(C(=O)Nc4ccc(Cl)c(C(=O)O)c4)C3)C(C)[C@H]12 (stereo partly drawn) [Example 2, (1R,5S,6S,8R,2′S,4′S)-2-(2-(3-Carboxy-4-chlorophenylcarbamoyl)-pyrrolidin-4-ylthio)-6-(1-hydroxyethyl)-1-methylcarbapenem-3-carboxylic acid] | 1.00 (≈ 1.96 µM) | 0.50 (≈ 0.98 µM) | 0.02 (≈ 0.0392 µM) | 0.03 (≈ 0.0588 µM) |
|  |  |  |  | CC(O)C1C(=O)N2C(C(=O)O)=C(SC3CNC(C(=O)Nc4cccc(C(=O)O)c4)C3)C(C)[C@H]12 (stereo partly drawn) [Example 4, (1R,5S,6S,8R,2′S,4′S)-2-(2-(3-Carboxyphenylcarbamoyl)pyrrolidin-4-ylthio) -6-(1-hydroxyethyl)-1-methylcarbapenem-3-carboxylic acid] | 0.50 (≈ 1.05 µM) | 0.25 (≈ 0.526 µM) | 0.02 (≈ 0.0421 µM) | 0.03 (≈ 0.0631 µM) |
|  |  |  |  | C[C@@H](O)[C@H]1C(=O)N2C(C(=O)O)=C(S[C@@H]3CN[C@H](C(=O)Nc4ccc(O)c(C(=O)O)c4)C3)[C@H](C)[C@H]12 [Example 10, (1R,5S,6S,8R,2′S,4′S)-2-(2-(3-Carboxy-4-hydroxyphenylcarbamoyl)pyrrolidin-4-ylthio)-6-(1-hydroxyethyl)-1-methylcarbapenem-3-carboxylic acid] | 0.25 (≈ 0.509 µM) | 0.13 (≈ 0.264 µM) | 0.01 (≈ 0.0203 µM) | 0.01 (≈ 0.0203 µM) |
| 32 (≈ 57.7 µM) | 2 (≈ 3.61 µM) | 0.03 (≈ 0.0541 µM) | 0.06 (≈ 0.108 µM) | CO/N=C(\C(=O)N[C@@H]1C(=O)N2C(C(=O)O)=C(CSc3nc(=O)c(=O)[nH]n3C)CS[C@H]12)c1csc(N)n1 [ceftriaxone, reference compound] |  |  |  |  |
